From US11466019B2, “Triazolo[4,5-d] pyramidine derivatives and their use as purine receptor antagonists” (Vernalis (R&D) Limited, priority 2008, dated 2022) come the findings set out here.

Each structure is given as a SMILES string. Read-outs that look alike come from different tables or passages of the source.

Assay [1] has as its target T1, human adenosine A3 receptors (Homo sapiens, UniProt P0DMS8).
T1 construct: expressed in transfected cells; host or cells: CHO-K1
T1 sequence (P0DMS8 1-318): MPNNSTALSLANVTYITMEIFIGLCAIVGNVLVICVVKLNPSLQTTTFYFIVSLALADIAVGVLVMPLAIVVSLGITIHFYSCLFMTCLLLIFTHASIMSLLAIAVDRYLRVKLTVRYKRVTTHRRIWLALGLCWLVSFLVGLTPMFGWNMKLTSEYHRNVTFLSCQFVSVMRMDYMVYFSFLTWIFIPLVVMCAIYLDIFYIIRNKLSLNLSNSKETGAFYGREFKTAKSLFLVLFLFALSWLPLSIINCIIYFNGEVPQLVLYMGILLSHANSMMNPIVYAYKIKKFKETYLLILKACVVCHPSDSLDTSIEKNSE
As to the kind of experiment: Adenosine receptor binding: binding affinities at hA3 receptors ([125I]-AB MECA displacement). Particulars: for Ki: read-out: Binding Affinity hA3-Ki; for Binding Selectivity A3/A2a: ratio of Ki values. The procedure: [formula] Adenosine Receptor Binding: Binding Affinities at hA3 Receptors
The resultant homogenate was kept for immediate use in the binding assay.
Total binding was determined using drug dilution buffer (50 mM Tris-HCl pH 7.5, 10 mM MgCl2, 5% DMSO). Non-specific binding was determined using 10 μM IB-MECA. […] Filters were left to dry overnight, and Microscint-0 scintillation fluid was then added to the filters. The filters were then left for at least 2 hours before the radioactivity was assessed using a Canberra Packard TopCount microplate scintillation counter.
(§1) Data was analysed using a 4 parameter logistical equation and non-linear regression which yields affinity constants (pIC50), and slope parameters:
(§2) [formula] where E is the quantity of binding and [A] is the competitor concentration. The Ki is then determined using the Cheng-Prusoff equation: […]

In assay [2] the test system is haloperidol-induced deficits in locomotor activity in mice. As to the kind of experiment: Haloperidol-induced hypolocomotion model (HaloLMA). The class given is in vivo. Particulars: female TO mice, intraperitoneal, haloperidol 0.2 mg/kg. The text has this:
Evaluation of Potential Anti-Parkinsonian Activity In Vivo: Haloperidol-Induced Hypolocomotion Model
This approach is also considered a valid method for screening drugs with potential antiparkinsonian effects. Thus, the ability of novel adenosine antagonists to block haloperidol-induced deficits in locomotor activity in mice can be used to assess both in vivo and potential antiparkinsonian efficacy.
Female TO mice (25-30 g) are used for all experiments. Animals are housed in groups of 8 (cage size-40 cm (width) by 40 cm (length) by 20 cm (height)) under 12 hour light/dark cycle (lights on 08:00), in a temperature (20±2° C.) and humidity (55±15%) controlled environment. Animals have free access to food and water, and are allowed at least 7 days to acclimatize after delivery before experimental use.
Liquid injectable haloperidol (e.g., 1 mL Serenance ampoules from Baker Norton, Harlow, Essex, each containing haloperidol BP 5 mg) are diluted to a final concentration of 0.02 mg/mL using saline. Test compounds are typically prepared as aqueous suspensions in 8% Tween. All compounds are administered intraperitoneally in a volume of 10 mL/kg.
1.5 hours before testing, mice are administered 0.2 mg/kg haloperidol, a dose that reduces baseline locomotor activity by at least 50%. Test substances are typically administered 5-60 minutes prior to testing. The animals are then placed individually into clean, clear polycarbonate cages (20 cm (width) by 40 cm (length) by 20 cm (height), with a flat perforated, Perspex lid). Horizontal locomotor activity is determined by placing the cages within a frame containing a 3 by 6 array of photocells linked to a computer, which tabulates beam breaks. Mice are left undisturbed to explore for 1 hour, and the number of beams breaks made during this period serves as a record of locomotor activity which is compared with data for control animals for statistically significant differences.
A number of the exemplified compounds of the present invention were tested in this assay and the results obtained are shown in Table 3, below.

The target in assay [3] is T2, human adenosine A1 receptors (Homo sapiens, UniProt P30542).
T2 construct: expressed in transfected cells; host or cells: CHO-K1
T2 sequence (P30542 1-326): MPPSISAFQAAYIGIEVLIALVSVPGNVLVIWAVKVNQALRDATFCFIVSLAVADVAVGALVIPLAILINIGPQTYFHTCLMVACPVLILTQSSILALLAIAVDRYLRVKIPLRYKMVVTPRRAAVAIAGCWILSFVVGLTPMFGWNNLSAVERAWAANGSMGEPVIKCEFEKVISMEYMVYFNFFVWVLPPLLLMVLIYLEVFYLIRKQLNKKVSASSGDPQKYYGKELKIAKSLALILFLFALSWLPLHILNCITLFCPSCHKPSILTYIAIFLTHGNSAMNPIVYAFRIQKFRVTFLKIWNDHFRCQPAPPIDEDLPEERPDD
As to the kind of experiment: Adenosine receptor binding: binding affinities at hA1 receptors ([3H]DPCPX displacement). As to conditions: for Ki: read-out: Binding Affinity hA1-Ki; for Binding Selectivity A1/A2a: ratio of Ki values. The procedure: Adenosine Receptor Binding: Binding Affinities at hA1 Receptors
The resultant homogenate was kept for immediate use in the binding.
(§3) Binding assays were performed in a total volume of 250 μL, containing [^3H]-DPCPX (3.0 nM), membranes and additional drugs. Total binding was determined using drug dilution buffer (50 mM Tris-HCl pH:7.5, 10 mM MgCl2, 5% DMSO). Non-specific binding was determined using 300 μM N6-cyclohexyladenosine (CHA). […] Filters were left to dry overnight, and Microscint-0 scintillation fluid was then added to the filters. The filters were then left for at least 2 hours before the radioactivity was assessed using a Canberra Packard TopCount microplate scintillation counter.
To determine the free ligand concentration, three vials were counted with 25 μL of [^3H]DPCPX containing 4 mL of Ultima-Gold MV scintillant on a Beckman LS6500 multi-purpose scintillation counter.
as §1, §2

The target in assay [4] is T3, human adenosine A2A receptors (Homo sapiens, UniProt P29274).
T3 construct: host or cells: HEK-293
T3 sequence (P29274 whole entry): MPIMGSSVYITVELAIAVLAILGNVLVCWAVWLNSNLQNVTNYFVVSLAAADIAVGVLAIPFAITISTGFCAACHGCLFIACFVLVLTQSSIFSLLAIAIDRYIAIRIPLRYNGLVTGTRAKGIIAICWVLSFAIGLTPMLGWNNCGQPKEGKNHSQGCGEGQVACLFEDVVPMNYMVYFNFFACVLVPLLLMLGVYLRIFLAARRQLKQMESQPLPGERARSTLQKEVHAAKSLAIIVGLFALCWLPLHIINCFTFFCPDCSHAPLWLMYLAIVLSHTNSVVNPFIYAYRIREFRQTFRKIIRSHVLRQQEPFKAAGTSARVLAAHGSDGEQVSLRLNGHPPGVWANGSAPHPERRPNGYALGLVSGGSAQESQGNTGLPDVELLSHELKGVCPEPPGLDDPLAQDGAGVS
As to the kind of experiment: Adenosine receptor binding: binding affinities at hA2A receptors ([3H]CGS-21680 displacement). Particulars: read-out: Binding Affinity hA2A-Ki. On the procedure:
Adenosine Receptor Binding: Binding Affinities at hA2A Receptors
as §3, with “The resultant homogenate was kept for immediate use in the binding assay. Binding” for “Binding”, “[^3H]-CGS21680 (20.0” for “[^3H]-DPCPX (3.0”, “pH 7.5,” for “pH:7.5,”, “CHA.” for “N6-cyclohexyladenosine (CHA).”
To determine the free ligand concentration, three vials were counted with 25 μL of [^3H]CGS21680 containing 4 mL of Ultima-Gold MV scintillant on a Beckman LS6500 multi-purpose scintillation counter.
as §1, §2

Assay [5] addresses T4, hA2B receptors (Homo sapiens, UniProt P29275).
T4 construct: host or cells: HEK-293
T4 sequence (P29275 1-332): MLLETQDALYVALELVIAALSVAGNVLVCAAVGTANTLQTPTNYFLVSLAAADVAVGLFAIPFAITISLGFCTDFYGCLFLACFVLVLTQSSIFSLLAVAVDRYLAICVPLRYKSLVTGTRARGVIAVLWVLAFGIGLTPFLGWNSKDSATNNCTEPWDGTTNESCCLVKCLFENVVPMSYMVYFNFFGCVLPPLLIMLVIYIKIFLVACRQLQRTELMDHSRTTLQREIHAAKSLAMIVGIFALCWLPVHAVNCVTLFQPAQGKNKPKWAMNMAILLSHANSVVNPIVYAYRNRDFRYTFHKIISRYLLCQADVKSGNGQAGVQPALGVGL
As to the kind of experiment: Adenosine receptor binding: binding affinities at hA2B receptors ([3H]-ZM241385 displacement). Particulars: for Ki: read-out: Binding Affinity hA2B-Ki; for Binding Selectivity A2b/A2a: ratio of Ki values.

[6] abbreviates: Table 1, [3H]DPCPX displacement, CHO-K1 membranes.
Setting [7] is: Table 1, [3H]CGS-21680 displacement, HEK-293 membranes.
Setting [8] is: Table 1, [3H]-ZM241385 displacement, HEK-293 membranes.
Setting [9] is: Table 2, comparative compounds of WO 02/055083.

Usually Ki stands for a measure of affinity in units of concentration, obtained from inhibition or displacement. Regarding `COC(C)(C)OCc1cccc(Cn2nnc3c(-c4ccc(C)o4)nc(N)nc32)n1` [Example 36, 7-(5-methylfuran-2-yl)-3-(6-[1-methoxy-1-methylethyl]oxymethylpyrid-2-ylmethyl)-3H-[1,2,3]triazolo[4,5-d]pyrimidin-5-amine], the Ki turned out to be 939 nM in assay [1] (Table 1, [125I]-AB MECA displacement, CHO-K1 membranes); 422 nM in assay [3] (setting [6]); 4.5 nM in assay [4] (setting [7]). For the same molecule, the “Binding Selectivity A3/A2a” value in assay [1] (Table 1) is recorded as 208. Besides, the “In Vivo activity HaloLMA MED” value in assay [2] is 1 to 3 mg/kg. Besides, the “Binding Selectivity A1/A2a” value in assay [3] (Table 1) is recorded as 93.

As to `Nc1nc(-c2nccs2)c2nnn(Cc3cccc(CO[C@H]4CCOC4)n3)c2n1` [Example 38, S-7-(thiazol-2-yl)-3-(6-[tetrahydrofuran-3-yl]oxymethylpyrid-2-ylmethyl)-3H-[1,2,3]triazolo[4,5-d]pyrimidin-5-amine], the results for the inhibition constant (Ki) in assay [5] (setting [8]), in assay [3] (setting [6]) and in assay [4] (setting [7]) were 2980 nM, 2090 nM and 28.4 nM, respectively. The “Binding Selectivity A2b/A2a” value in assay [5] (Table 1) is reported as 105. Besides, the “In Vivo activity HaloLMA MED” value in assay [2] was found to be 10 mg/kg. Further, in assay [3] (Table 1), the “Binding Selectivity A1/A2a” value is 73.

For the molecule `Cc1csc(-c2nc(N)nc3c2nnn3Cc2cccc(CO[C@H]3CCOC3)n2)n1` [Example 25, S-7-(4-methylthiazol-2-yl)-3-(6-[tetrahydrofuran-3-yl]oxymethylpyrid-2-ylmethyl)-3H-[1,2,3]triazolo[4,5-d]pyrimidin-5-amine], in assay [2], the “In Vivo activity HaloLMA MED” value is listed as 3 mg/kg.

For `COCc1cccc(Cn2nnc3c(-c4cccc(OC)c4)nc(N)nc32)n1` [Example 18, 7-(3-methoxyphenyl)-3-(6-[methoxymethyl]pyrid-2-ylmethyl)-3H-[1,2,3]triazolo[4,5-d]pyrimidin-5-amine], the “In Vivo activity HaloLMA MED” value in assay [2] is below 30 mg/kg.

In the case of `Nc1cccc(Cn2nnc3c(-c4ccccc4)nc(N)nc32)c1` [WO 02/055083 Example 151, 3-(3-aminobenzyl)-7-phenyl-3H-[1,2,3]triazolo[4,5-d]pyrimidine-5-amine, reference compound], the Ki came out at 276 nM in assay [5] (setting [9]), 831 nM in assay [1] (setting [9]), 102 nM in assay [3] (setting [9]) and 5.3 nM in assay [4] (setting [9]). For the same molecule, the “Binding Selectivity A2b/A2a” value in assay [5] (Table 2) was found to be 52. For the same molecule, the “Binding Selectivity A3/A2a” value in assay [1] (Table 2) was 156. The “Binding Selectivity A1/A2a” value in assay [3] (Table 2) is listed as 19.

On to `Cc1ccc(-c2nc(N)nc3c2nnn3Cc2cccc(CO[C@H]3CCOC3)n2)o1` [Example 1, S-7-(5-methylfuran-2-yl)-3-(6-[tetrahydrofuran-3-yl]oxymethylpyrid-2-ylmethyl)-3H-[1,2,3]triazolo[4,5-d]pyrimidin-5-amine], for which the “In Vivo activity HaloLMA MED” value in assay [2] worked out at 0.3 mg/kg.

Regarding `Nc1nc(-c2ccccc2)c2nnn(Cc3cccc(C4(O)CCCC4)n3)c2n1` [Example 9, 7-phenyl-3-(6-[1-hydroxy-1-cyclopentyl]pyrid-2-ylmethyl)-3H-[1,2,3]triazolo[4,5-d]pyrimidin-5-amine], the results for the inhibition constant (Ki) in assay [5] (setting [8]), in assay [3] (setting [6]) and in assay [4] (setting [7]) were 3410 nM, 706 nM and 9.8 nM, respectively. Also, the “Binding Selectivity A2b/A2a” value in assay [5] (Table 1) is listed as 347. Besides, in assay [2], the “In Vivo activity HaloLMA MED” value turned out to be 10 mg/kg. Also, the “Binding Selectivity A1/A2a” value in assay [3] (Table 1) was 72.

For the molecule `CC(C)OCc1cccc(Cn2nnc3c(-c4ccco4)nc(N)nc32)n1` [WO 02/055083 Example 247, 7-(2-furyl)-3-(6-isopropoxymethyl-2-pyridylmethyl)-3H-[1,2,3]triazolo[4,5-d]pyrimidine-5-amine, reference compound], the Ki in assay [5] (setting [9]) was found to be 454 nM; in assay [1] (setting [9]) it was 1460 nM; in assay [3] (setting [9]), 276 nM; in assay [4] (setting [9]), 3 nM. The “Binding Selectivity A2b/A2a” value in assay [5] (Table 2) worked out at 151. In addition, in assay [1] (Table 2), the “Binding Selectivity A3/A2a” value stood at 487. In assay [3] (Table 2), the “Binding Selectivity A1/A2a” value is reported as 92.

Regarding `COCc1cccc(Cn2nnc3c(-c4cccc(C#N)c4)nc(N)nc32)n1` [Example 24, 7-(3-cyanophenyl)-3-(6-[methoxymethyl]pyrid-2-ylmethyl)-3H-[1,2,3]triazolo[4,5-d]pyrimidin-5-amine], the “In Vivo activity HaloLMA MED” value in assay [2] came to 10 mg/kg.

Regarding `COCc1cccc(Cn2nnc3c(-c4ccc(C)o4)nc(N)nc32)n1` [WO 02/055083 Example 183, 3-(6-methoxymethyl-2-pyridylmethyl)-7-(5-methyl-2-furyl)-3H-[1,2,3]triazolo[4,5-d]pyrimidine-5-amine, reference compound], the Ki in assay [5] (setting [9]) was determined as 231 nM; in assay [1] (setting [9]) it was 656 nM; in assay [3] (setting [9]), 84.1 nM; in assay [4] (setting [9]), 1.3 nM. The “Binding Selectivity A2b/A2a” value in assay [5] (Table 2) was 183. The “Binding Selectivity A3/A2a” value in assay [1] (Table 2) turned out to be 519. Besides, the “Binding Selectivity A1/A2a” value in assay [3] (Table 2) turned out to be 67.
